Source: patent publication US6653306B1, “Epoxy-steroidal aldosterone antagonist and angiotensin II antagonist combination therapy” (G.D. Searle & Co., priority 1995, dated 2003)

Key:
[1] = molecular target: angiotensin II AT1 receptor; assay: Assay A: Angiotensin II binding activity (125I-AII displacement, rat uterine membrane preparation)
Experimental: Assay A: Antiotensin II Binding Activity
Compounds of the invention were tested for ability to bind to the smooth muscle angiotensin II receptor using a rat uterine membrane preparation. […] Rat uterine membranes were prepared from fresh tissue. All procedures were carried out at 4° C. Uteri were stripped of fat and homogenized in phosphate-buffered saline at pH 7.4 containing 5 mM EDTA. The homogenate was centrifuged at 1500×g for 20 min., and the supernatant was recentrifuged at 100,000×g for 60 min. The pellet was resuspended in buffer consisting of 2 mM EDTA and 50 mM Tris-HCl (pH 7.5) to a final protein concentration of 4 mg/ml. […] The reaction was initiated by the addition of membrane protein and the mixture was incubated at 25° C. for 60 min. The incubation was terminated with ice-cold 50 mM Tris-HCl (pH 7.5) and the mixture was filtered to separate membrane-bound labelled peptide from the free ligand. The incubation tube and filter were washed with ice-cold buffer. Filters were assayed for radioactivity in a Micromedic gamma counter.
Nonspecific binding was defined as binding in the presence of 10 μM of unlabelled AII. Specific binding was calculated as total binding minus nonspecific binding. […] Binding data were analyzed by a nonlinear least-squares curve fitting program.

[2] = test system: pressor response to AII; assay: Assay C: In vivo intragastric pressor assay response for AII antagonists; parameters: species or system rat; settings: intragastric, or intraduodenal for examples listed; for inhibition at 3 mg/kg / Assay C Duration: dose 3 mg/kg
Experimental: Assay C: In Vivo Intragastric Pressor Assay Response for AII Antagonists
Male Sprague-Dawley rats weighing 225-300 grams were anesthetized with methohexital (30 mg/kg, i.p.) and catheters were implanted into the femoral artery and vein. The catheters were tunneled subcutaneously to exit dorsally, posterior to the head and between the scapulae. The catheters were filled with heparin (1000 units/ml of saline). The rats were returned to their cage and allowed regular rat chow and water ad libitum. After full recovery from surgery (3-4 days), rats were placed in Lucite holders and the arterial line was connected to a pressure transducer. Arterial pressure was recorded on a Gould polygraph (mmHg). Angiotensin II was administered as a 30 ng/kg bolus via the venous catheter delivered in a 50 μl volume with a 0.2 ml saline flush. The pressor response in mm Hg was measured by the differer.-:e from pre-injection arterial pressure to the maximum pressure achieved. The AII injection was repeated every 10 minutes until three consecutive injections yielded responses within 4 mmHg of each other. These three responses were then averaged and represented the control response to AII. The test compound was suspended in 0.5% methylcellulose in water and was administered by gavage. The volume administered was 2 ml/kg body weight. The standard dose was 3 mg/kg. Angiotensin II bolus injections were given at 30, 45, 60, 75, 120, 150, and 180 minutes after gavage. The pressor response to AII was measured at each time point. The rats were then returned to their cage for future testing. A minimum of 3 days was allowed between tests. Percent inhibition was calculated for each time point following gavage by the following formula:
[(Control Response—Response at time point)/Control Response]×100.

Structure (SMILES)	IC50 [1]	further results
CCCCc1nc(-c2ccccc2Cl)nn1Cc1ccc(-c2ccccc2-c2nnn[nH]2)nc1 [Compound 267]	0.025 µM	inhibition at 3 mg/kg ([2]; Rattus norvegicus): 25%; Assay C Duration [2]: >180 min
CCCCc1cn(C(C)C)c(=O)n1Cc1ccc(-c2ccccc2-c2nnn[nH]2)nc1 [Compound 200]	0.02 µM	inhibition at 3 mg/kg ([2]; Rattus norvegicus): 45%; Assay C Duration [2]: >180 min
CCCCc1nc(Cl)n(Cc2ccc(-c3ccccc3-c3nnn[nH]3)cc2)n1 [compound 9]	–	inhibition at 30 mg/kg ([2]; Rattus norvegicus): 80%; inhibition at 100 mg/kg ([2]; Rattus norvegicus, dose 100 mg/kg): 100%
CCCCn1cc(C2CCCCC2)n(Cc2ccc(-c3ccccc3-c3nnn[nH]3)nc2)c1=O [Compound 191]	0.081 µM	inhibition at 3 mg/kg ([2]; Rattus norvegicus): 10%; Assay C Duration [2]: 180 min
CCCCc1cn(CCCC)c(=O)n1Cc1ccc(-c2ccccc2-c2nnn[nH]2)cn1 [Compound 223]	0.014 µM	inhibition at 3 mg/kg ([2]; Rattus norvegicus): 20%; Assay C Duration [2]: >180 min
CCCCc1cn(-c2ccccc2Cl)c(=O)n1Cc1ccc(-c2ccccc2-c2nnn[nH]2)nc1 [Compound 216]	0.0054 µM	inhibition at 3 mg/kg ([2]; Rattus norvegicus): 50%; Assay C Duration [2]: >180 min
CCCCCn1cc(CCCC)n(Cc2ccc(-c3ccccc3-c3nnn[nH]3)nc2)c1=O [Compound 199]	0.01 µM	inhibition at 3 mg/kg ([2]; Rattus norvegicus): 60%; Assay C Duration [2]: >180 min
CCCCn1nc(CCc2cccs2)nc1Cc1ccc(-c2ccccc2-c2nnn[nH]2)nc1 [Compound 153]	0.013 µM	inhibition at 3 mg/kg ([2]; Rattus norvegicus): 25%; Assay C Duration [2]: >180 min
CCCCc1nc(C(F)(F)CCC)nn1Cc1ccc(-c2ccccc2-c2nnn[nH]2)cc1 [compound 10]	–	inhibition at 3 mg/kg ([2]; Rattus norvegicus): 86%; inhibition at 30 mg/kg ([2]; Rattus norvegicus): 100%
CCCCc1cn(-c2c(C(C)C)cccc2C(C)C)c(=O)n1Cc1ccc(-c2ccccc2-c2nnn[nH]2)nc1 [Compound 235]	0.034 µM	–
CCCCc1cn(C2CCCC2)c(=O)n1Cc1ccc(-c2ccccc2-c2nnn[nH]2)nc1 [Compound 207]	0.099 µM	–
CCCCc1cn(C)c(=O)n1Cc1ccc(-c2ccccc2-c2nnn[nH]2)nc1 [Compound 194]	0.047 µM	–
CCCCc1nc(CCC2CCCCC2)nn1Cc1ccc(-c2ccccc2-c2nnn[nH]2)cc1 [Compound 43]	0.019 µM	–
CCCCn1cc(CCC(C)C)n(Cc2ccc(-c3ccccc3-c3nnn[nH]3)nc2)c1=O [Compound 189]	0.029 µM	–
CCCCc1nc(CCc2ccccc2)n(Cc2ccc(-c3ccccc3-c3nnn[nH]3)nc2)n1 [Compound 254]	0.072 µM	–
CCCCc1nc(-c2ccccc2OC)nn1Cc1ccc(-c2ccccc2-c2nnn[nH]2)nc1 [Compound 265]	0.11 µM	–
CCCCc1nc(C)nn1Cc1ccc(-c2ccccc2-c2nnn[nH]2)cc1 [Compound 32]	0.016 µM	–
CCCCc1cn(-c2c(C)cc(C(C)(C)C)cc2C)c(=O)n1Cc1ccc(-c2ccccc2-c2nnn[nH]2)nc1 [Compound 233]	0.084 µM	–
CCCCc1nc(CN)nn1Cc1ccc(-c2ccccc2-c2nnn[nH]2)cc1 [Compound 27]	0.18 µM	–
CCCCc1nn(CCCCC(=O)OC)c(=O)n1Cc1ccc(-c2ccccc2-c2nn[nH]n2)cc1 [Compound 100]	0.0044 µM	–

Structure (SMILES)	IC50 [1]	further results
CCCCc1nc(CCCC)n(Cc2ccc(-c3ncccc3-c3nnn[nH]3)cc2)n1 [Compound 245]	0.098 µM	–
CCCCc1cn(CCCC)c(=O)n1Cc1ccc(-c2ccncc2-c2nnn[nH]2)cc1 [Compound 226]	0.093 µM	–
CCCCc1nc(CCCC)n(Cc2ccc(-c3ccccc3-c3nnn[nH]3)cc2)n1 [compound 3]	–	inhibition at 10 mg/kg ([2]; Rattus norvegicus): 50%; inhibition at 30 mg/kg ([2]; Rattus norvegicus): 100%
CCCCn1cc(C2CCCC2)n(Cc2ccc(-c3ccccc3-c3nnn[nH]3)nc2)c1=O [Compound 192]	0.14 µM	–
CCCCCCCCc1nc(CCCC)n(Cc2ccc(-c3ccccc3-c3nnn[nH]3)cc2)n1 [Compound 29]	0.16 µM	–
CCCCc1nc(CC)nn1Cc1ccc(-c2ccccc2C(=O)O)cc1 [Compound 75]	0.57 µM	–
CCCCc1nc(CC(CC)CC)n(Cc2ccc(-c3ccccc3-c3nnn[nH]3)nc2)n1 [Compound 252]	0.013 µM	–
CCCCc1cn(C23CC4CC(CC(C4)C2)C3)c(=O)n1Cc1ccc(-c2ccccc2-c2nnn[nH]2)nc1 [Compound 214]	0.065 µM	–
CCCCc1nc(C(F)(F)C(F)(F)F)nn1Cc1ccc(-c2ccccc2-c2nnn[nH]2)cc1 [Compound 69]	0.015 µM	–
CCCCc1nc(CCCC)n(Cc2ccc(-c3ccccc3-c3nnn[nH]3)nc2)n1 [Compound 241]	–	inhibition at 3 mg/kg ([2]; Rattus norvegicus): 40%
CCCCc1nc(CCCC)n(Cc2ccc(-c3ccccc3C(=O)O)cc2)n1 [compound 2]	–	inhibition at 10 mg/kg ([2]; Rattus norvegicus): 95%; inhibition at 30 mg/kg ([2]; Rattus norvegicus): 98%
CCCCc1nc(CCCC)n(Cc2ccc(-c3ccccc3C(=O)O)nc2)n1 [Compound 240]	0.12 µM	–
CCCCc1nc(C2CCCCC2)nn1Cc1ccc(-c2ccccc2-c2nnn[nH]2)cc1 [Compound 66]	0.012 µM	–
CCCCc1cn(CCCC)c(=O)n1Cc1ccc(-c2cnccc2-c2nnn[nH]2)cc1 [Compound 225]	0.16 µM	–
CCCCc1cn(-c2ccccc2OC)c(=O)n1Cc1ccc(-c2ccccc2-c2nnn[nH]2)nc1 [Compound 218]	0.009 µM	–
CCCCc1nc(CCCNC(=O)OC(C)(C)C)nn1Cc1ccc(-c2ccccc2-c2nnn[nH]2)cc1 [Compound 68]	0.0086 µM	–
CCCCc1nc(CCCN)n(Cc2ccc(-c3ccccc3-c3nnn[nH]3)cc2)n1 [Compound 71]	12 µM	–
CCCCc1nc(-c2ccccc2)n(Cc2ccc(-c3ccccc3-c3nnn[nH]3)nc2)n1 [Compound 260]	0.22 µM	–
CCCCc1cn(-c2c(C)cccc2C)c(=O)n1Cc1ccc(-c2ccccc2-c2nnn[nH]2)nc1 [Compound 222]	0.005 µM	–
CCCCc1nc(CF)nn1Cc1ccc(-c2ccccc2-c2nnn[nH]2)cc1 [Compound 59]	0.12 µM	–

Structure (SMILES)	IC50 [1]	further results
CCCCn1nc(C(=O)NC(C)(C)C)nc1Cc1ccc(-c2ccccc2-c2nnn[nH]2)nc1 [Compound 173]	0.09 µM	–
CCCCc1nc(C)n(Cc2ccc(-c3ccccc3-c3nnn[nH]3)cc2)n1 [Compound 33]	0.63 µM	–
CCCCc1nc(-c2ccccc2)nn1Cc1ccc(-c2ccccc2-c2nnn[nH]2)nc1 [Compound 259]	0.054 µM	–
CCCCc1nn(C/C=C/c2ccccc2)c(=O)n1Cc1ccc(-c2ccccc2-c2nn[nH]n2)cc1 [Compound 105]	0.29 µM	–
CCCCc1nc(CC23CC4CC(CC(C4)C2)C3)n(Cc2ccc(-c3ccccc3-c3nnn[nH]3)cc2)n1 [Compound 61]	0.11 µM	–
CCCCc1nc(-c2ccccc2C(C)C)nn1Cc1ccc(-c2ccccc2-c2nnn[nH]2)nc1 [Compound 263]	0.057 µM	–
CCn1nc(C(C)(F)F)nc1Cc1ccc(-c2ccccc2-c2nnn[nH]2)nc1 [Compound 164]	1.7 µM	–
CCCCc1cn(CC(C)C)c(=O)n1Cc1ccc(-c2ccccc2-c2nnn[nH]2)nc1 [Compound 197]	0.014 µM	–
CCCCc1nc(CCCC)n(Cc2ccc(-c3ccccc3C(=O)NNS(=O)(=O)C(F)(F)F)cc2)n1 [compound 5]	–	inhibition at 30 mg/kg ([2]; Rattus norvegicus): 38%
CCCn1cc(CC(C)C)n(Cc2ccc(-c3ccccc3-c3nnn[nH]3)nc2)c1=O [Compound 187]	0.77 µM	–
CCCCc1cn(CCC)c(=O)n1Cc1ccc(-c2ccccc2-c2nnn[nH]2)nc1 [Compound 196]	0.031 µM	–
CCCCc1nc(-c2ccccc2C)nn1Cc1ccc(-c2ccccc2-c2nnn[nH]2)nc1 [Compound 261]	0.018 µM	–
CCCCc1nc(CF)n(Cc2ccc(-c3ccccc3-c3nnn[nH]3)cc2)n1 [Compound 60]	2.2 µM	–
CCCCc1cn(-c2ccccc2)c(=O)n1Cc1ccc(-c2ccccc2-c2nnn[nH]2)nc1 [Compound 215]	0.045 µM	–
CCCCc1nc(-c2c(F)cccc2F)n(Cc2ccc(-c3ccccc3-c3nnn[nH]3)nc2)n1 [Compound 270]	0.021 µM	–
CCCCCc1nc(Cc2ccc(-c3ccccc3-c3nnn[nH]3)nc2)n(CCCC)n1 [Compound 156]	0.078 µM	–
CCCCc1nc(C23CC4CC(CC(C4)C2)C3)nn1Cc1ccc(-c2ccccc2-c2nnn[nH]2)cc1 [Compound 56]	0.005 µM	–
CCCCc1nn(C(Cc2ccccc2)C(=O)c2ccccc2)c(=O)n1Cc1ccc(-c2ccccc2-c2nn[nH]n2)cc1 (stereo not shown) [Compound 94]	5.8 µM	–
